Data as given in ChEMBL document CHEMBL1139429, “2-Thiazolylimino/heteroarylimino-5-arylidene-4-thiazolidinones as new agents with SHP-2 inhibitory action” (J Med Chem, 2008).

molecular target: T1, Tyrosine-protein phosphatase non-receptor type 11 (Homo sapiens, UniProt Q06124); assay: Inhibition of human recombinant GST-fused SHP2 using p-nitrophenyl phosphate as substrate
T1 sequence (Q06124 whole entry): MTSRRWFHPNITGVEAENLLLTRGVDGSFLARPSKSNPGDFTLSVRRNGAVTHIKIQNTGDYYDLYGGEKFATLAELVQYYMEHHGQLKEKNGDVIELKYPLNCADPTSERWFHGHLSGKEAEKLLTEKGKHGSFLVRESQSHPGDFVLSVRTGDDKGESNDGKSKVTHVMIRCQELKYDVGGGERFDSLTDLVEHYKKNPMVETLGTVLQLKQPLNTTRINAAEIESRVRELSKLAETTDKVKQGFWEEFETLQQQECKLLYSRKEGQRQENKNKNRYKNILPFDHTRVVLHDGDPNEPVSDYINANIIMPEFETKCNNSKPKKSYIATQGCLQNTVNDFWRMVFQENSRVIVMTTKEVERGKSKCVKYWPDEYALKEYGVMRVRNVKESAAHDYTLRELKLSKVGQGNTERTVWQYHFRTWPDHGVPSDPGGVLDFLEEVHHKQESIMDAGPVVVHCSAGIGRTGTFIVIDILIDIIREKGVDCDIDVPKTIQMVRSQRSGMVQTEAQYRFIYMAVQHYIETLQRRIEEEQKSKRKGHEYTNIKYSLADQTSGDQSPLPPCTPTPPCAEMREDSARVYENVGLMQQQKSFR

SMILES | Ki [µM]
COc1ccc(/C=C2/S/C(=N/c3nccs3)NC2=O)cc1 | 11.7
O=C1N/C(=N\c2nccs2)S/C1=C/c1cccc(Cl)c1 | 1090
COc1ccc(/C=C2/S/C(=N\c3nsc4ccccc34)NC2=O)cc1 | 22.8
COc1cc(/C=C2/S/C(=N/c3nc(C45CC6CC(CC(C6)C4)C5)cs3)NC2=O)ccc1O | 12.3
COc1cc(/C=C2/S/C(=N/c3nc(-c4ccccc4)cs3)NC2=O)ccc1O | 103
COc1cc(/C=C2/S/C(=N\c3nsc4ccccc34)NC2=O)ccc1O | 90.8

More lines, now with the values ahead:

Ki [µM] | SMILES
474 | O=C1N/C(=N\c2nccs2)S/C1=C/c1ccc([N+](=O)[O-])cc1
18.1 | COc1cc(/C=C2/S/C(=N/c3nc4ccccc4s3)NC2=O)cc(OC)c1O
28.7 | O=C1N/C(=N\c2nc3ccccc3s2)S/C1=C/c1cccc([N+](=O)[O-])c1
12.9 | COc1cc(/C=C2/S/C(=N/c3nc4ccc([N+](=O)[O-])cc4s3)NC2=O)cc(OC)c1O
